This is an account of results in ChEMBL document CHEMBL1143211, “Inhibitors of proteases and amide hydrolases that employ an alpha-ketoheterocycle as a key enabling functionality” (Bioorg Med Chem, 2008).

Structures are written as SMILES. In brackets after ≈: the same amount, converted by molar mass.

The target in test [1] is Bifunctional purine biosynthesis protein ATIC (Homo sapiens, UniProt P31939). Kind of test: Inhibition of human aminoimidazole carboxamide transformylase.
Test [2] in a line: Inhibition of Escherichia coli glycinamide ribonucleotide transformylase.
The target of test [3] is T1, Trifunctional purine biosynthetic protein adenosine-3 (Homo sapiens, UniProt P22102).
T1 sequence (P22102 whole entry): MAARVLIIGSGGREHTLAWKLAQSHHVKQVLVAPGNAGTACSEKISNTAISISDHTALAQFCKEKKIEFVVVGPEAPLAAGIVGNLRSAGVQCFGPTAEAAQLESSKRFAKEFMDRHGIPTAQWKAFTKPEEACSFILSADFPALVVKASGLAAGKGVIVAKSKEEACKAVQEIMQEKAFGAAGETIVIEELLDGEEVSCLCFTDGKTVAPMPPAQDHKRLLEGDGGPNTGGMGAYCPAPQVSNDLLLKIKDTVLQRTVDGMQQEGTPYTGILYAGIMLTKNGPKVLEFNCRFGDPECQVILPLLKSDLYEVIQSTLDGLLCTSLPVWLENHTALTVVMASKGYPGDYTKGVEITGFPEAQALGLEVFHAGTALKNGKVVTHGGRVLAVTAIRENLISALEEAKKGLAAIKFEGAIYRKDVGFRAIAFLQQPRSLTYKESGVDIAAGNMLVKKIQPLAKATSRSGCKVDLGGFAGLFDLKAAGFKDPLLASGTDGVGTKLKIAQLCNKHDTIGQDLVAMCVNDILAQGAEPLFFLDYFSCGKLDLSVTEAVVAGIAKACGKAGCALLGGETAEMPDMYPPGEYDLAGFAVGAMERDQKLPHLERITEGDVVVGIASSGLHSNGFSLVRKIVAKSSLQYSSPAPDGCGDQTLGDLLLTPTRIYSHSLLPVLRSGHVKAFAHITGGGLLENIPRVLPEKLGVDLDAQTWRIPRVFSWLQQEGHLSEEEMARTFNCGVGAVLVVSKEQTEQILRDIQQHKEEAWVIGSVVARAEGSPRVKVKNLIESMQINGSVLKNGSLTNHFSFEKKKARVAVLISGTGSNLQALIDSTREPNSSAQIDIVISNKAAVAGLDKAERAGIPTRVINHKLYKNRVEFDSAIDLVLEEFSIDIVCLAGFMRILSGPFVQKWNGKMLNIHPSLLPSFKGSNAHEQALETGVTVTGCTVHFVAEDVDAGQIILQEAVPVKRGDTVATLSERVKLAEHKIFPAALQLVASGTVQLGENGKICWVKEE
Kind of test: Inhibition of human glycinamide ribonucleotide transformylase.

Test [4] deals with Prothrombin (Homo sapiens, UniProt P00734). Description: Inhibition of human alpha-thrombin.
Test [5] has as its target Coagulation factor XI (Homo sapiens, UniProt P03951).
Test [6] deals with Coagulation factor X (Homo sapiens, UniProt P00742). Description: Inhibition of human factor 10a.
Sequence of Coagulation factor X (P00742 41-179 limits assumed): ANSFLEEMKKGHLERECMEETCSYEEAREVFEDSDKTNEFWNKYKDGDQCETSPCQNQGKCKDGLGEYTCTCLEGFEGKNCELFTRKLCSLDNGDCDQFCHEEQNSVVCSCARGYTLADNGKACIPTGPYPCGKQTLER
Sequence of Coagulation factor X (P00742 235-488 limits assumed): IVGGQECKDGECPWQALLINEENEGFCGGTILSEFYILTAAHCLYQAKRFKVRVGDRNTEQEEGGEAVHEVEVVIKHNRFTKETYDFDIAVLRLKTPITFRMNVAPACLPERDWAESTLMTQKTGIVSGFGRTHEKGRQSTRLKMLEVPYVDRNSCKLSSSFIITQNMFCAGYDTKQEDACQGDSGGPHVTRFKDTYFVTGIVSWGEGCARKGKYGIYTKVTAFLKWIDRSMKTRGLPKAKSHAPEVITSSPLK
The subject of test [7] is Mus musculus. Description: Analgesic activity in iv dosed mouse. The test is classed as functional.
Test [8] can be described thus: Selectivity for Porphyromonas gingivalis arginine gingipain over trypsin.
The nature of test [9]: Inhibition of Porphyromonas gingivalis arginine gingipain.
Test [10] in a line: Selectivity for Porphyromonas gingivalis arginine gingipain over cathepsin B.
Test [11] deals with Trypanosoma brucei rhodesiense. Kind of test: microbe, parasite or virus in culture. The following applies: read-out: ED50.
Test [12] concerns Trypanosoma cruzi. Kind of test: microbe, parasite or virus in culture. The following applies: read-out: ED50.
The target of test [13] is Beta-lactamase (Enterobacter cloacae, UniProt P05364). Kind of test: Inhibition of Enterobacter cloacae beta lactamase.
Sequence of Beta-lactamase (P05364 whole entry): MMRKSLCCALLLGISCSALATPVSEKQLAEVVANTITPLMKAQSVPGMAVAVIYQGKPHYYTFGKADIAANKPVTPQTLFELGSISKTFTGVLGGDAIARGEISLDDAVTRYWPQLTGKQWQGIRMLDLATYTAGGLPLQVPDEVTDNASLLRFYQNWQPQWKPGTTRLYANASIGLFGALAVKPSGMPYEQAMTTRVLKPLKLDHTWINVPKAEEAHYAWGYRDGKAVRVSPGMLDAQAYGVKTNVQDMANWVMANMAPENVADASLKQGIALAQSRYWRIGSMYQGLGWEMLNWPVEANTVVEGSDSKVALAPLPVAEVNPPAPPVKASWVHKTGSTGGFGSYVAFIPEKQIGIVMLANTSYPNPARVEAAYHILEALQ
Test [14] relates to Osteoclast. Description: Inhibition of bovine bone resorption in rabbit osteoclasts. The test is classed as functional, cell-based. The following applies: Oryctolagus cuniculus.
Test [15] can be described thus: Inhibition of trypsin-like activity of human 20S proteasome.
Test [16] can be described thus: Inhibition of post-glutamyl peptide hydrolase-like activity of human 20S proteasome.
Test [17] concerns PC-3. Kind of test: Growth inhibition of human PC3 cells. The test is classed as functional, cell-based.
Test [18] deals with Proline iminopeptidase (Serratia marcescens, UniProt O32449). Description: Inhibition of Serratia marcescens prolyl aminopeptidase.
Sequence of Proline iminopeptidase (O32449 whole entry): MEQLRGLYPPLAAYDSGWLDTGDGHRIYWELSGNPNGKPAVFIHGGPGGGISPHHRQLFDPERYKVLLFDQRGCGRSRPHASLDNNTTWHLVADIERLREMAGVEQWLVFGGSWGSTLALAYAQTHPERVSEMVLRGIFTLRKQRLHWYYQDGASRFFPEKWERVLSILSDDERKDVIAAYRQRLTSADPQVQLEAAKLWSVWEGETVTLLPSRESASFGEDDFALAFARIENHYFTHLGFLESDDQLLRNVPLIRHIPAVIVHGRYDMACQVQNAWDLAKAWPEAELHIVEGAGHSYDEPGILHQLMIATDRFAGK

Sequence of Bifunctional purine biosynthesis protein ATIC (P31939 whole entry): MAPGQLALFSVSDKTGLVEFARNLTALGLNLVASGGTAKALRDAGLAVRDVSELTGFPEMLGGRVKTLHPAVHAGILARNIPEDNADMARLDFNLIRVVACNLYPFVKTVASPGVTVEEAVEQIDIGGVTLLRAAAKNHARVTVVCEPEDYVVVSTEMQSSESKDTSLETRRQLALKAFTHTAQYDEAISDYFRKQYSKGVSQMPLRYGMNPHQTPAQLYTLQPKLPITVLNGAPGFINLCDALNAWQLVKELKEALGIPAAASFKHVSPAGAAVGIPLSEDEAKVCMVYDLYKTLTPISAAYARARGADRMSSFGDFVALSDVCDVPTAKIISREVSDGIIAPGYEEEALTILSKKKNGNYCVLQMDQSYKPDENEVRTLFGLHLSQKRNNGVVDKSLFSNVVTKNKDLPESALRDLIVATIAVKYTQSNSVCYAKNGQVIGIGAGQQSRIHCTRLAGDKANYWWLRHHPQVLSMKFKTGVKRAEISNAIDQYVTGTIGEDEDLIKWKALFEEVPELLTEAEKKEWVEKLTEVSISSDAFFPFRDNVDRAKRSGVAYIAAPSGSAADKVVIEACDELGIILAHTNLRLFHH
Sequence of Coagulation factor XI (P03951 19-387 limits assumed): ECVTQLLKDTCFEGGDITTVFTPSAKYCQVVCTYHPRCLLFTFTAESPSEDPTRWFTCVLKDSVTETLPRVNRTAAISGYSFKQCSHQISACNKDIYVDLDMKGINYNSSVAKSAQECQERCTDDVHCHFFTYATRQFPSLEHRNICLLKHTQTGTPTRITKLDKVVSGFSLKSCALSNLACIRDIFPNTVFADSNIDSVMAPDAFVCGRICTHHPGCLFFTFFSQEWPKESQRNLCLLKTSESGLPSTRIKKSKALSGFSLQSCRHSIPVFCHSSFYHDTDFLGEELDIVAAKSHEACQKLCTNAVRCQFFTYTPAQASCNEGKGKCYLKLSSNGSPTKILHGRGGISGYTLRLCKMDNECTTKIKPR
Sequence of Coagulation factor XI (P03951 388-625 limits assumed): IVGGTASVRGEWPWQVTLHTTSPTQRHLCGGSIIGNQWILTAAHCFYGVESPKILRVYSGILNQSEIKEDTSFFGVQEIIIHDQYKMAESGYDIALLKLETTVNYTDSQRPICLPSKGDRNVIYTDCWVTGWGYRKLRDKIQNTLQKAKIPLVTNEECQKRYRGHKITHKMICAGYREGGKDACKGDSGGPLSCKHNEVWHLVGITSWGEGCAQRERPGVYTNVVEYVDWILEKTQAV

Broadly, the Ki is a measure of affinity in units of concentration, obtained from inhibition or displacement. As for `Nc1nc(N)c(CCCCCC(=O)c2nc3ccccc3o2)c(=O)[nH]1`, the figures for the inhibitory constant (Ki) in test [1], in [2] and in [3] were > 100000 nM, 15000 nM and > 100000 nM, respectively.

By IC50 is commonly meant the midpoint of a concentration-inhibition curve. `CC(C)[C@H](NC(=O)[C@H](CC1CCCCC1)NC(=O)N[C@H](C)c1ccc(Br)cc1)C(=O)N[C@@H](CCCNC(=N)N)C(=O)c1nccs1`: the IC50 in [4] came to 980 nM; in test [5], 10 nM; in test [6] it was 2700 nM.

Usually ED50 stands for the dose that gives a 50% effect, or the effect in half of the subjects. In test [7], `O=C(CCCCCCc1ccccc1)c1ncc(-c2ccccn2)o1` had a 50% effective dose (ED50) of 1.9 mg/kg.

As to `NCCCC[C@H](NC(=O)C1CCCN(C(=O)CCc2ccccc2)C1)C(=O)c1nc2ccccc2s1` (stereo partly drawn), the values for the Selectivity ratio in [8] and in [10] were 30 and 120000, respectively. In test [9], the affinity, expressed as Ki, was 0.9 nM.

On to `O=C(c1cc(-c2ccccc2)on1)[C@@H]1CCCN1C(=O)[C@@H]1CCCN1C(=O)OCc1ccccc1`, for which the figures for the EC50 in test [11] and in test [12] were 2200 µg/mL (≈ 4.65 mM) and 6700 µg/mL (≈ 14.1 mM), respectively.

Consider `O=C(Cc1ccccc1)NCC(=O)c1nc(C(=O)O)cs1`, for which affinity in [13] was put at a Ki of 110000 nM.

In turn, `CCC[C@H](NC(=O)C1(NC(=O)c2ccc(N(C)C)cc2)CCCCC1)C(=O)c1nnc(-c2ccco2)o1` had a half-maximal inhibitory concentration (IC50) in [14] of 130 nM.

As for `Cc1ccc(S(=O)(=O)N[C@@H](CC(=O)NCC(C)(C)C)C(=O)N[C@@H](C)C(=O)N[C@@H](CC(C)C)C(=O)c2nnc(-c3ccccc3)o2)cc1`, the inhibition constant (Ki) in test [15] is > 300000 nM; in test [16], > 900000 nM. The compound also returned an IC50 in test [17] of 200 nM.

In test [18], `CC(C)(C)c1nnc(C(=O)[C@@H]2CCCN2)o1` came in with an inhibition constant (Ki) of 500 nM.
